The values below come from ChEMBL document CHEMBL4414595, “Tripterfordins A-O, Dihydro-β-agarofuran Sesquiterpenoids from the Leaves of Tripterygium wilfordii” (J Nat Prod, 2019).

This assay has as its system RAW264.7. As to the kind of experiment: Anti-inflammatory activity in mouse RAW264.7 cells assessed as inhibition of LPS-induced NO production by Griess assay. It counts as functional, cell-based.
Turning to `CC(=O)OC[C@]12[C@H](OC(C)=O)[C@@H](OC(C)=O)[C@@H]3[C@@H](O)[C@]1(OC3(C)C)[C@@](C)(O)C[C@H](OC(C)=O)[C@@H]2OC(=O)/C=C\c1ccccc1`, the IC50 was determined as 31 µM.

With `CC(=O)OC[C@]12[C@H](OC(C)=O)C(=O)[C@@H]3C[C@]1(OC3(C)C)[C@@](C)(O)C[C@H](OC(C)=O)[C@@H]2OC(=O)/C=C/c1ccccc1`, the IC50 was above 100 µM.

Turning to `CC(=O)OC[C@]12[C@H](OC(C)=O)C(=O)[C@@H]3[C@@H](O)[C@]1(OC3(C)C)[C@@](C)(O)C[C@H](OC(C)=O)[C@@H]2OC(=O)/C=C/c1ccccc1`, the IC50 was above 100 µM.

Turning to `CC(=O)OC[C@]12[C@H](OC(C)=O)[C@@H](OC(C)=O)[C@@H]3[C@@H](OC(C)=O)[C@]1(OC3(C)C)[C@@](C)(O)C[C@H](OC(C)=O)[C@@H]2OC(=O)/C=C\c1ccccc1`, the IC50 was above 100 µM.

As to `CC(=O)OC[C@]12[C@H](OC(C)=O)[C@@H](OC(C)=O)[C@@H]3C[C@]1(OC3(C)C)[C@@](C)(O)C[C@H](OC(C)=O)[C@@H]2OC(=O)/C=C\c1ccccc1`, the IC50 is 19.1 µM.

Take `CC(=O)OC[C@]12[C@H](OC(C)=O)[C@@H](OC(C)=O)[C@@H]3[C@@H](O)[C@]1(OC3(C)C)[C@H](C)[C@@H](O)[C@H](OC(C)=O)[C@@H]2OC(=O)/C=C/c1ccccc1`: the IC50 was above 100 µM.

For `CC(=O)OC[C@]12[C@H](OC(C)=O)[C@@H](O)[C@@H]3[C@@H](O)[C@]1(OC3(C)C)[C@@](C)(O)C[C@H](O)[C@@H]2OC(=O)/C=C/c1ccccc1`, the IC50 was above 100 µM.

For `CC(=O)OC[C@]12[C@H](OC(C)=O)[C@@H](OC(C)=O)[C@@H]3[C@@H](O)[C@]1(OC3(C)C)[C@H](C)C[C@H](OC(C)=O)[C@@H]2OC(=O)/C=C/c1ccccc1`, the IC50 came to 11.9 µM.

In the case of `CC(=O)OC[C@]12[C@H](OC(C)=O)[C@@H](OC(C)=O)[C@@H]3[C@@H](O)[C@]1(OC3(C)C)[C@@](C)(O)[C@@H](O)[C@H](OC(C)=O)[C@@H]2OC(=O)/C=C/c1ccccc1`, the IC50 came to 53.7 µM.

On to `CC(=O)OC[C@]12[C@H](OC(C)=O)[C@@H](OC(C)=O)[C@@H]3C[C@]1(OC3(C)C)[C@@](C)(O)C[C@H](OC(C)=O)[C@@H]2OC(=O)/C=C/c1ccccc1`, for which the half-maximal inhibitory concentration (IC50) was above 100 µM.

As for `CC(=O)OC[C@]12[C@H](OC(C)=O)[C@@H](OC(C)=O)[C@@H]3C[C@]1(OC3(C)C)[C@H](C)C[C@H](OC(C)=O)[C@@H]2OC(=O)/C=C\c1ccccc1`, the IC50 was above 100 µM.

Turning to `CC(=O)OC[C@]12[C@H](OC(C)=O)[C@@H](OC(C)=O)[C@@H]3[C@@H](O)[C@]1(OC3(C)C)[C@@](C)(O)C[C@H](OC(C)=O)[C@@H]2OC(=O)/C=C/c1ccccc1`, the half-inhibitory concentration (IC50) was found to be 24.2 µM.

On to `CC(=O)OC[C@]12[C@H](OC(C)=O)[C@@H](OC(C)=O)[C@@H]3C[C@]1(OC3(C)C)[C@H](C)C[C@H](OC(C)=O)[C@@H]2OC(=O)/C=C/c1ccccc1`, for which the IC50 was above 100 µM.

With `CC(=O)OC[C@]12[C@H](OC(C)=O)[C@@H](OC(C)=O)[C@@H]3[C@@H](O)[C@]1(OC3(C)C)[C@H](C)C[C@H](OC(C)=O)[C@@H]2OC(=O)/C=C\c1ccccc1`, the 50% inhibitory concentration (IC50) came out at 28.2 µM.

`CC(=O)O[C@H]1C[C@@H](C)[C@]23OC(C)(C)[C@H]([C@H](O)[C@@H](OC(=O)c4ccccc4)[C@]2(CO)[C@H]1OC(=O)/C=C/c1ccccc1)[C@H]3OC(C)=O`: the IC50 was above 100 µM.

For the molecule `C[C@]12CCC(=O)C=C1CC[C@@H]1[C@@H]2[C@@H](O)C[C@@]2(C)[C@H]1CC[C@]2(O)C(=O)COC(=O)CCC(=O)O` [HYDROCORTISONE SODIUM SUCCINATE], the IC50 was found to be 42.4 µM.

For orientation: IC50 means the midpoint of a concentration-inhibition curve.
